Data: BindingDB's records for doi:10.1021/jm990235p (Va Medical Center, 1999)

Biological target: aldehyde dehydrogenase (Saccharomyces cerevisiae)
Experiment: In vitro inhibitory activity against yeast Aldehyde dehydrogenase

- IC50: 169 µM
Compound: CCOC(=O)N(OC(=O)N(CC)CC)S(=O)(=O)c1ccccc1 [ethyl [(diethylamino)carbonyl]oxy(phenylsulfonyl)carbamate]
